Patent US20130210846A1, “USE OF NOVEL PAN-CDK INHIBITORS FOR TREATING TUMORS” (BAYER INTELLECTUAL PROPERTY GMBH, priority 2010, published 2013)

Tests used:
HeLa-MaTu-ADR = assay: Proliferation assay HeLa-MaTu-ADR; type: cell-based, human; settings: cervix carcinoma, 4 days, crystal violet
How it was run: (§1)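 Human tumour cells were seeded at 1000–5000 cells per well in DMEM/HAMS F12 with 2 mM L-glutamine and 10% FCS, then exposed after 24 h to compound at 0.01–30 μM (0.5% DMSO) for 4 days. Proliferation was read by crystal violet staining at 595 nm, normalised to a zero-point plate, and IC50 obtained by 4-parameter fit.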

Caco-2 = assay: Proliferation assay Caco-2; type: cell-based, human; settings: Caco-2, colon/rectum carcinoma, 4 days, crystal violet
How it was run: as §1

DU145 = assay: Proliferation assay DU145; type: cell-based, human; settings: DU145, prostate carcinoma, 4 days, crystal violet
How it was run: as §1

MCF7 = assay: Proliferation assay MCF7; type: cell-based, human; settings: MCF7, estrogen receptor-positive mamma carcinoma, 4 days, crystal violet
How it was run: as §1

NCI-H460 = assay: Proliferation assay NCI-H460; type: cell-based, human; settings: NCI-H460, non-small-cell bronchial carcinoma, 4 days, crystal violet
How it was run: as §1

MDA-MB 453 = assay: Proliferation assay MDA-MB 453; type: cell-based; settings: Homo sapiens, 96 h; MDA-MB 453, estrogen receptor-negative mamma carcinoma; 4 days, crystal violet
Description: (§2) Cultivated human tumor cells (originally obtained from ATCC, HeLa-MaTu and HeLa-MaTu-ADR, originally obtained from Epo GmbH, Berlin, Germany) were plated at a density of 1000 to 5000 cells/measuring point, depending on the growth rate of the cell line, in a 96-well multititer plate in 200 μl of growth medium (DMEM/HAMS F12, 2 mM L-glutamine, 10% fetal calf serum). After 24 hours the cells of one plate (zero-point plate) were stained with crystal violet (see below), whereas the medium of the other plates was replaced with fresh culture medium (200 μl), to which the test substances had been added at various concentrations (0 μM, and in the range 0.01-30 μM; the final concentration of the solvent dimethyl sulfoxide was 0.5%). The cells were incubated for 4 days in the presence of the test substances. Cellular proliferation was determined by staining the cells with crystal violet: the cells were fixed by adding 20 μl/measuring point of an 11% glutaraldehyde solution for 15 min at room temperature. After washing the fixed cells with water three times, the plates were dried at room temperature. The cells were stained by adding 100 μl/measuring point of a 0.1% crystal violet solution (pH adjusted to pH3 by adding acetic acid). After washing the stained cells with water three times, the plates were dried at room temperature. The dye was dissolved by adding 100 μl/measuring point of a 10% acetic acid solution. The extinction was determined photometrically at a wavelength of 595 nm. The percentage change in cell growth was calculated by standardization of the measured values to the extinction values of the zero-point plate (=0%) and the extinction of the untreated (0 μM) cells (=100%). The measured data were standardized to 0% inhibition (cell proliferation without inhibitor) and 100% inhibition (zero-point plate). The IC50 values were determined by means of a 4-parameter fit using the company's own software.
(§3) The substances were examined in the following cell lines which, in an exemplary manner, represent the stated indications: […]

CDK1/CycB = molecular target: T1, CDK1/CycB (Homo sapiens, UniProt P06493); assay: CDK1/CycB kinase assay (Assay 1); type: biochemical; settings: 0.5 μM ATP, histon IIIS, 10 min 22° C.; read-out: CDK1/CycB (Assay 1) Concentration for half-maximal inhibition of the enzyme activity, IC50
T1 construct: purchased ProQinase GmbH, Freiburg, Germany; host or cells: baculovirus-infected insect cells (Sf9)
Description: Recombinant CDK1 and CycB-GST fusion proteins, purified from baculovirus-infected insect cells (Sf9), were purchased from ProQinase GmbH, Freiburg, Germany. The histon HIS used as kinase substrate is commercially available from Sigma.
CDK1/CycB (200 ng/measuring point) was incubated for 10 min at 22° C. in the presence of various concentrations of test substances (0 μM, and within the range 0.01-100 μM) in assay buffer [50 mM Tris/HCl pH8.0, 10 mM MgCl2, 0.1 mM Na ortho-vanadate, 1.0 mM dithiothreitol, 0.5 μM adenosine triphosphate (ATP), 10 μg/measuring point histon IIIS, 0.2 μCi/measuring point ^33P-gamma ATP, 0.05% NP40, 1.25% dimethyl sulfoxide]. The reaction was stopped by adding EDTA solution (250 mM, pH 8.0, 15 μl/measuring point).
From each reaction mixture, 15 μl were applied to P30 filter strips (from Wallac), and unincorporated ^33P-ATP was removed by washing the filter strips three times, for 10 min each time, in 0.5% phosphoric acid. After drying the filter strips for 1 hour at 70° C., the filter strips were covered with scintillator strips (MeltiLex™ A, from Wallac) and stoved for 1 hour at 90° C. The amount of incorporated ^33P (substrate phosphorylation) was determined by scintillation measurement in a gamma-radiation measuring instrument (Wallac). The measured data were standardized to 0% inhibition (enzyme reaction without inhibitor) and 100% inhibition (all assay components except enzyme). The IC50 values were determined by means of a 4-parameter fit using the company's own software.

A431 = assay: Proliferation assay A431; type: cell-based; settings: Homo sapiens, A-431, 96 h; A431, skin: epidermis; 4 days, crystal violet
Description: as §2, §3

SW480 = assay: Proliferation assay SW480; type: cell-based; settings: Homo sapiens, 96 h; SW480, colon/rectum carcinoma; 4 days, crystal violet
Description: as §2, §3

HCT116 = assay: Proliferation assay HCT116; type: cell-based; settings: Homo sapiens, HCT-116, 96 h; HCT116, colon/rectum carcinoma; 4 days, crystal violet
Description: as §2, §3

A549 = assay: Proliferation assay A549; type: cell-based; settings: Homo sapiens, 96 h; A549, non-small-cell bronchial carcinoma; 4 days, crystal violet
Description: as §2, §3

NCI-ADR-Res = assay: Proliferation assay NCI-ADR-Res; type: cell-based; settings: Homo sapiens, 96 h, ovarial carcinoma, 4 days, crystal violet
Description: as §2, §3

HT29 = assay: Proliferation assay HT29; type: cell-based; settings: Homo sapiens, HT-29, 96 h; HT29, colon/rectum carcinoma; 4 days, crystal violet
Description: as §2, §3

786-O = assay: Proliferation assay 786-O; type: cell-based; settings: Homo sapiens, 786-0, 96 h, kidney carcinoma, 4 days, crystal violet
Description: as §2, §3

MIA PaCa-2 = assay: Proliferation assay MIA PaCa-2; type: cell-based; settings: Homo sapiens, 96 h; MIA PaCa-2, pancreas carcinoma; 4 days, crystal violet
Description: as §2, §3

Caki2 = assay: Proliferation assay Caki2; type: cell-based; settings: Homo sapiens, CAKI-2, 96 h; Caki2, kidney carcinoma; 4 days, crystal violet
Description: as §2, §3

SK-BR-3 = assay: Proliferation assay SK-BR-3; type: cell-based; settings: Homo sapiens, 96 h; SK-BR-3, estrogen receptor-negative mamma carcinoma; 4 days, crystal violet
Description: as §2, §3

T1 sequence (P06493 whole entry): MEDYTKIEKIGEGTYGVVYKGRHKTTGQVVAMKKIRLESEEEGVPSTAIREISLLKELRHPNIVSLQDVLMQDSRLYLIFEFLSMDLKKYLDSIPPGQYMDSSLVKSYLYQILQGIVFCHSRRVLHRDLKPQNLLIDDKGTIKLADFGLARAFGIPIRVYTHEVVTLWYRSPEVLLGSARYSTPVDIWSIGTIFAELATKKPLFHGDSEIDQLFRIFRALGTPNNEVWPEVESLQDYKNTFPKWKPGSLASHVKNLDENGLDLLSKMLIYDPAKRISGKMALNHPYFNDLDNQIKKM
T1 sequence (P14635 whole entry partner): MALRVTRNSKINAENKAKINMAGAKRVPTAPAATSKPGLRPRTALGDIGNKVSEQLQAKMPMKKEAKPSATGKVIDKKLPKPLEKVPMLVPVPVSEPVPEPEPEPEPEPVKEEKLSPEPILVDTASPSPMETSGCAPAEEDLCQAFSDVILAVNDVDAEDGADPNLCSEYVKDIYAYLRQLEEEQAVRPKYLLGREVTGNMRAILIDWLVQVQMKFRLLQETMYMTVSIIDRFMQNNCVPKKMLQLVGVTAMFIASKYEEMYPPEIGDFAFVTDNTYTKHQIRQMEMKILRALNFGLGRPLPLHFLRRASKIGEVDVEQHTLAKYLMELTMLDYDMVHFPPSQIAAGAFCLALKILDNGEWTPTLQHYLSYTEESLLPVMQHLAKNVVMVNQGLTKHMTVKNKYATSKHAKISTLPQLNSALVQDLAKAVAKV

SMILES | IC50 (MDA-MB 453) | IC50 (CDK1/CycB) | IC50 (A431) | IC50 (SW480) | IC50 (HCT116) | IC50 (A549) | IC50 (NCI-ADR-Res) | IC50 (HT29) | IC50 (786-O) | IC50 (MIA PaCa-2) | IC50 (Caki2) | IC50 (SK-BR-3) | other results
C[C@@H](O)[C@@H](C)Oc1nc(Nc2ccc(S(C)(=N)=O)cc2)ncc1C(F)(F)F (mixture of isomers) [Example 2-SI-2, (RS)—S-(4-{[4-{[(1R,2R)-2-Hydroxy-1-methylpropyl]oxy}-5-(trifluoromethyl)pyrimidin-2-yl]-amino}phenyl)-S-methylsulfoximide] |  |  |  |  |  |  |  |  |  |  |  |  | IC50 (HeLa-MaTu-ADR): 7 nM; IC50 (Caco-2): 24 nM; IC50 (DU145): 9 nM; IC50 (MCF7): 11 nM; IC50 (NCI-H460): 16 nM
C[C@@H](O)[C@@H](C)Nc1nc(Nc2ccc(S(=N)(=O)C3CC3)cc2)ncc1C(F)(F)F (mixture of isomers) [Example 4-SI-1, (RS)—S-Cyclopropyl-S-(4-{[4-{[(1R,2R)-2-hydroxy-1-methylpropyl]amino}-5-(trifluoromethyl)-pyrimidin-2-yl]amino}phenyl)sulfoximide] | 11 nM | 6 nM | 20 nM | 22 nM | 20 nM | < 10 nM | 37 nM | 12 nM | 30 nM | 14 nM | < 10 nM | 33 nM | IC50 (HeLa-MaTu-ADR; Homo sapiens, 96 h): 16 nM; IC50 (Caco-2; Homo sapiens, Caco-2, 96 h): 35 nM; IC50 (DU145; Homo sapiens, DU-145, 96 h): 31 nM; IC50 (MCF7; Homo sapiens, MCF7, 96 h): 34 nM; IC50 (NCI-H460; Homo sapiens, NCI-H460, 96 h): 16 nM
C[C@@H](O)[C@@H](C)Oc1nc(Nc2ccc(S(C)(=N)=O)cc2)ncc1C(F)(F)F (single isomer, unassigned) [Example 2-SI-2] | 16 nM | 4 nM | 17 nM | 19 nM | 16 nM | 23 nM | 29 nM | 28 nM | 22 nM | 19 nM | 24 nM | 21 nM | 
